# Results: patent US10660910B2, “Use of sedoheptulose for prevention or treatment of inflammation” (C7 SUGAR GMBH, priority 2013, dated 2020)
# How the values were obtained:
# [1] = Glucose and sedoheptulose measurement in human serum before and after carrot meal (GC-MS); type: in vivo; details: humans, two hours after a meal of mainly steamed carrots (~700 g per male adult) vs overnight fasted, n=4, FIG. 1B
# From the text: Fresh carrots with an Austrian “organic-certificate” were sliced into small pieces and snap-frozen in liquid nitrogen. The same procedure was applied to leaves freshly harvested from indoor-grown Sedum Spectabile plants. Three samples of each tissue were pooled and homogenized to powder by glass-beads. The carbohydrate rich fractions of the samples were isolated by 20% H2O and 80% MeOH extraction solution spiked with 13 C standards and processed for standard gas-chromatography coupled to mass spectrometry (GC-MS). Glucose and sedoheptulose were identified by their individual masses and their relative amount was derived from the peak area of each individual analyte normalized to 13 C content. Glucose and sedoheptulose were also measured in equal volumes of serum from overnight fasted or carrot fed individuals. The carrots were steamed and some olive-oil, salt and pepper were used for flavour. Two hours before and two hours after the carrot containing meal human serum was prepared in VACUETTE® Z Serum Sep tubes from blood. Serum samples were processed as previously described and also analyzed by GC-MS as detailed above and in Ruiz-Matute AI et al., Chromatogr B Analyt Technol Biomed Life Sci. (2011) May 15 879(17-18).
# [2] = tested on: Glucose-6-phosphate dehydrogenase (G6PD) in hepatocytes; test: Glucose-6-phosphate dehydrogenase activity assay (enzyme histochemistry) in hepatocytes; type: cell-based, mouse; details: WT cells incubated in cell culture media with sedoheptulose; compared with phenotype of CARKL overexpressing cells; data not shown
# Procedure: Hepatocytes were isolated from male wild-type and CARKL overexpressing mice after the mice were sacrificed by hepatic in situ collagenase perfusion. After perfusion, the liver was quickly removed, minced, and filtered through a cell strainer (Fisher Scientific, Inc) into a 50 ml sterile tube. Hepatocytes in the resulting filtrate were purified from the nonparenchymal cells by centrifugation steps. The isolated hepatocytes were seeded into plates at a concentration of 0.25×10^6/ml in respective DMEM-media containing 10% FBS and indicated carbohydrate mixes at 3 g/L (glucose and fructose (GF), or glucose, fructose and sedoheptulose (GFS)) at least two days before experiments were performed. Cells were grown on polystyrene vessel tissue culture treated glass slides, snap frozen in liquid nitrogen and kept at −80° C. The enzyme histochemical procedure was based on the tetrazolium salt method as described by Van Noorden and Frederiks. […] The medium was freshly prepared immediately before incubation. Control reactions additionally contained 40 mM glucosamine-6-phosphate. Cells were incubated at room temperature for 15 minutes under continuous mixing by orbital shaker. After incubation, cells were washed 3×5 minutes in […] phosphate buffered saline, dried, and mounted in glycerol gelatin, and photographed within one day at ×10 magnification.
# osteoclasts = test: In vitro bone resorption assay; type: cell-based, mouse
# Procedure: Mouse bones were isolated from male wild-type and CARKL overexpressing mice and bone marrow wash flushed, washed and cleared from redblood cells by lysis, and subsequently differentiated in DMEM containing 25 mM glucose and 20 ng/ml M-CSF. After 4 days, cells for osteoclast differentiation were harvested and seeded in corning osteo assay plates with differentiation media (see below), and for primary bone marrow derived macrophages (BMDM) the medium was renewed and further supplemented with M-SCF for two days. Differentiated BMDM were then seeded in respective DMEM-media containing 10% FBS and indicated carbohydrate mixes at 3 g/L (glucose and fructose (GF), or glucose, fructose and sedoheptulose (GFS)) at least two days before experiments were performed. Osteoclast precursor cells (bone marrow cells treated with 20 ng/ml M-CSF for 4 days) were plated in 24-well Corning Osteo Assay plate in the presence of 10 ng/ml M-CSF and 100 ng/ml RANKL in alpha-MEM medium containing 10% FBS and 3 g/L either glucose and fructose (GF), or glucose, fructose, and sedoheptulose (GFS). The Medium was renewed every third day. […] Each well was entirely photographed by TissueFax with an ×20 objective and all visible resorption pits were counted and analysed blinded.
structure (smiles),measurement,setting,value
"O=C(CO)[C@@H](O)[C@H](O)[C@H](O)[C@H](O)CO [sedoheptulose, Sedoheptulose]",increase in sedoheptulose serum levels,[1],approximately two-fold
same,"G6PD activity distribution (re-localization of G6PD, reduced activity in the inner space of the cells)",[2],same phenotype
same,pit formation by osteoclasts,"osteoclasts; 7 days in Corning Osteo Assay plates, GFS vs GF media, FIG. 5C",reduced
same,larger resorption-pits,"osteoclasts; WT osteoclasts in GF or GFS media, FIG. 5D",found only in the absence of sedoheptulose
